The target in experiment [1] is T1, Human recombinant FAP (Homo sapiens, UniProt Q12884).
T1 sequence (Q12884 1-760): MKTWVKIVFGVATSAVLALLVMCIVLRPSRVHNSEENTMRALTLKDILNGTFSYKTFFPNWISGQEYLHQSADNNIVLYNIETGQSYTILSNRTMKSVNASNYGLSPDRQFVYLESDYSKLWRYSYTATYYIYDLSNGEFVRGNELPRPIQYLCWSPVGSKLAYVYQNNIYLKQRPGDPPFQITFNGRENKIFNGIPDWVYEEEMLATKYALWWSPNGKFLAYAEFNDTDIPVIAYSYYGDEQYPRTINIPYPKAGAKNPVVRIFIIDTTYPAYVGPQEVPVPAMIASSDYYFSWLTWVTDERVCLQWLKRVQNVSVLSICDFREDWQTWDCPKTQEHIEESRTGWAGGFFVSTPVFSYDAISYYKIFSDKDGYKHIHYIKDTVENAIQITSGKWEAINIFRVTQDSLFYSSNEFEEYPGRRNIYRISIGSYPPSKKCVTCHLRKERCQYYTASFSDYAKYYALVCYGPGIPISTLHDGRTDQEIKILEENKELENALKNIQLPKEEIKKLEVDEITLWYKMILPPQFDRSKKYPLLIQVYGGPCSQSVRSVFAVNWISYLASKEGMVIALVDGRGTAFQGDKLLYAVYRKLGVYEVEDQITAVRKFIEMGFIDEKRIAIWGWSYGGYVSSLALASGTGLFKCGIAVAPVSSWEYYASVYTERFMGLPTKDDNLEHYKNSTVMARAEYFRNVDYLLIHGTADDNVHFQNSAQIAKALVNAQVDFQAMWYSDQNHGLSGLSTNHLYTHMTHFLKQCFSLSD
Kind of experiment: FRET-based FAP protease activity assay. The class given is biochemical. Details: purchased R&D systems 3715-SE. The note with it: pIC50 Category (Activity), recombinant human FAP, FRET substrate, 37° C.

The target in experiment [2] is T2, FAP-expressing human WI-38 fibroblasts (Homo sapiens, UniProt Q12884).
T2 construct: FAP-expressing human WI-38 fibroblasts (ECACC) were cultured in EMEM; host or cells: WI-38 human fibroblasts
T2 sequence (Q12884 1-760): T1 sequence (Q12884 1-760)
The experiment in a line: Competitive FACS binding assay. The note with it: pIC50 Category (FACS), competition with 3 nM Cy5-labeled compound, WI-38 fibroblasts, 4° C., 1 hour. As for the experimental part:
Cells were analyzed in an Attune NxT flow cytometer. […]
In general terms: Flow cytometry measures light scatter and fluorescence of single cells or particles in a stream.

IC50 data for 16 molecules are collected here from US20220315554A1, “COMPOUNDS COMPRISING A […] LIGAND AND USE THEREOF” (priority 2019, published 2022).

Structures are written as SMILES. pIC50: −log10 of the molar value. Numbered stars: 1 amine (or outer) side, 2 acyl side, 3 side chain; on linkers, the order of the positions; unused ones are H or OH. Bridge positions count the residues as written; N and C are the ends. Square brackets hold non-standard residues; d marks the D form. Peptide text beside a SMILES is read from it. * marks the point of attachment. NH(CH2)3NH(O2Oc(DOTA)) = O=C(O)CN1CCN(CC(=O)O)CCN(CC(=O)NCCOCCOCC(=O)NCCCN*)CCN(CC(=O)O)CC1; X47 = O=C(O)CN1CCN(CC(=O)O)CCN(CC(=O)NCCCCCNC(=O)CCC(=O)NCCCOCCOCCOCCCN*)CCN(CC(=O)O)CC1; NH(CH2)3NHDOTA = O=C(O)CN1CCN(CC(=O)O)CCN(CC(=O)NCCCN*)CCN(CC(=O)O)CC1; Pyridine(2,6-diCH2) = c1cc(C[*:1])nc(C[*:2])c1; Phe(2-CF3) = N[C@@H](Cc1ccccc1C(F)(F)F)C(=O)O; mXylylene = c1cc(C[*:1])cc(C[*:2])c1; Octanoyl = CCCCCCCC(=O)*; Hexanoyl = CCCCCC(=O)*; CO = O=C([*:1])[*:2]; NHPentyl = CCCCCN*; βAla = NCCC(=O)O

As a reminder, the pIC50 is the IC50 on a negative log10 scale, so that one unit is a factor of ten.

For `CCCCCC(=O)N[C@H]1CSCc2cccc(c2)CSC[C@@H](C(N)=O)NC(=O)[C@H](Cc2ccccc2)NC(=O)[C@H](CCC(=O)O)NC(=O)[C@H]([C@@H](C)O)NC(=O)[C@@H]2CCCN2C(=O)[C@H](C)NC1=O` [3BP-3346, Hex-[Cys(3MeBn)-Ala-Pro-Thr-Glu-Phe-Cys]-NH2] (Hexanoyl-CAPTEFC-NH2; linker 1-7 via mXylylene), the pIC50 in experiment [1] was 6.10 to 7.00; in experiment [2], less than 6.00.

On to `CCCCCC(=O)N[C@H]1CSCc2cccc(c2)CSC[C@@H](C(N)=O)NC(=O)[C@H](Cc2ccccc2)NC(=O)[C@H](C)NC(=O)[C@H]([C@@H](C)O)NC(=O)[C@@H]2CCCN2C(=O)[C@@H]2CCCN2C1=O` [3BP-3348, Hex-[Cys(3MeBn)-Pro-Pro-Thr-Ala-Phe-Cys]-NH2] (Hexanoyl-CPPTAFC-NH2; linker 1-7 via mXylylene), for which the negative-log IC50 (pIC50) in experiment [1] and in experiment [2] was less than 6.00 in each case.

In the case of `CCCCCC(=O)N[C@H]1CSCc2cccc(c2)CSC[C@@H](C(N)=O)NC(=O)[C@H](C)NC(=O)[C@H](CCC(=O)O)NC(=O)[C@H]([C@@H](C)O)NC(=O)[C@@H]2CCCN2C(=O)[C@@H]2CCCN2C1=O` [3BP-3350, Hex-[Cys(3MeBn)-Pro-Pro-Thr-Glu-Ala-Cys]-NH2] (Hexanoyl-CPPTEAC-NH2; linker 1-7 via mXylylene), the values for the negative-log IC50 (pIC50) in experiment [1] and in experiment [2] were 6.10 to 7.00 and less than 6.00, respectively.

Regarding `CCCCCC(=O)N[C@H]1CSCc2cccc(c2)CSC[C@@H](C(N)=O)NC(=O)[C@H](Cc2ccccc2)NC(=O)[C@H](CCC(=O)O)NC(=O)[C@H](C)NC(=O)[C@@H]2CCCN2C(=O)[C@@H]2CCCN2C1=O` [3BP-3354, Hex-[Cys(3MeBn)-Pro-Pro-Ala-Glu-Phe-Cys]-NH2] (Hexanoyl-CPPAEFC-NH2; linker 1-7 via mXylylene), the pIC50 in experiment [1] and in experiment [2] was less than 6.00 throughout.

Consider `CCCCCC(=O)N[C@H]1CSCc2cccc(c2)CSC[C@@H](C(=O)O)NC(=O)[C@H](Cc2ccccc2)NC(=O)[C@H](CCC(=O)O)NC(=O)[C@H]([C@@H](C)O)NC(=O)[C@@H]2CCCN2C(=O)[C@@H]2CCCN2C1=O` [3BP-3370, Hex-[Cys(3MeBn)-Pro-Pro-Thr-Glu-Phe-Cys]-OH] (Hexanoyl-CPPTEFC-OH; linker 1-7 via mXylylene), for which the pIC50 in experiment [1] and in experiment [2] was 7.10 to 8.00 each time.

As to `CCCCCC(=O)N[C@H]1CSCc2cccc(c2)CSC[C@@H](C(=O)NCCC(=O)O)NC(=O)[C@H](Cc2ccccc2)NC(=O)[C@H](CCC(=O)O)NC(=O)[C@H]([C@@H](C)O)NC(=O)[C@@H]2CCCN2C(=O)[C@@H]2CCCN2C1=O` [3BP-3371, Hex-[Cys(3MeBn)-Pro-Pro-Thr-Glu-Phe-Cys]-Bal-OH] (Hexanoyl-CPPTEFC[βAla]-OH; linker 1-7 via mXylylene), the pIC50 in experiment [1] was 7.10 to 8.00; in experiment [2] it was greater than 8.00.

As for `C[C@@H](O)[C@@H]1NC(=O)[C@@H]2CCCN2C(=O)[C@@H]2CCCN2C(=O)[C@@H](NC(=O)[C@H](CCCCNC(N)=O)NC(=O)CCC(=O)NCCCOCCOCCOCCCNC(=O)CN2CCN(CC(=O)O)CCN(CC(=O)O)CCN(CC(=O)O)CC2)CSCc2cccc(c2)CSC[C@@H](C(=O)NCCC(=O)O)NC(=O)[C@H](Cc2ccccc2)NC(=O)[C@H](CCC(N)=O)NC1=O` [3BP-3399, DOTA-Ttds-Hci-[Cys(3MeBn)-Pro-Pro-Thr-Gln-Phe-Cys]-Bal-OH], the pIC50 in experiment [1] and in experiment [2] was less than 6.00 throughout.

Regarding `CCCCCC[C@H](NC(=O)CCC(=O)NCCCOCCOCCOCCCNC(=O)CN1CCN(CC(=O)O)CCN(CC(=O)O)CCN(CC(=O)O)CC1)C(=O)N[C@H]1CSCc2cccc(c2)CSC[C@@H](C(=O)NCCC(=O)O)NC(=O)[C@H](Cc2ccccc2)NC(=O)[C@H](CCC(N)=O)NC(=O)[C@H]([C@@H](C)O)NC(=O)[C@@H]2CCCN2C(=O)[C@@H]2CCCN2C1=O` [3BP-3400, DOTA-Ttds-Hgl-[Cys(3MeBn)-Pro-Pro-Thr-Gln-Phe-Cys]-Bal-OH], the pIC50 in experiment [1] was 7.10 to 8.00; in experiment [2] it was less than 6.00.

In the case of `CCCCCC(=O)N[C@H]1CSCc2cccc(c2)CSC[C@@H](C(=O)N[C@@H](CC(=O)O)C(=O)NCCCOCCOCCOCCCNC(=O)CCC(=O)NCCCCCNC(=O)CN2CCN(CC(=O)O)CCN(CC(=O)O)CCN(CC(=O)O)CC2)NC(=O)[C@H](Cc2ccccc2)NC(=O)[C@H](CCC(N)=O)NC(=O)[C@H]([C@@H](C)O)NC(=O)[C@@H]2CCCN2C(=O)[C@@H]2CCCN2C1=O` [3BP-3404, Hex-[Cys(3MeBn)-Pro-Pro-Thr-Gln-Phe-Cys]-Asp-Ttds-Ape(DOTA)] (Hexanoyl-CPPTQFCD-X47; linker 1-7 via mXylylene), the pIC50 in experiment [1] and in experiment [2] was greater than 8.00 in each case.

For the molecule `CCCCCC(=O)N[C@H]1CSCc2cccc(c2)CSC[C@@H](C(N)=O)NC(=O)[C@H](Cc2c[nH]c3ccccc23)NC(=O)[C@H](CCC(N)=O)NC(=O)[C@H]([C@@H](C)O)NC(=O)[C@@H]2CCCN2C(=O)[C@@H]2CCCN2C1=O` [3BP-3408, Hex-[Cys(3MeBn)-Pro-Pro-Thr-Gln-Trp-Cys]-NH2] (Hexanoyl-CPPTQWC-NH2; linker 1-7 via mXylylene), the pIC50 in experiment [1] and in experiment [2] was 7.10 to 8.00 throughout.

In the case of `CCCCCC(=O)N[C@H]1CSCc2cccc(c2)CSC[C@@H](C(=O)N[C@@H](CC(=O)O)C(N)=O)NC(=O)[C@H](Cc2ccccc2C(F)(F)F)NC(=O)[C@H](CCC(N)=O)NC(=O)[C@H]([C@@H](C)O)NC(=O)[C@@H]2CCCN2C(=O)[C@@H]2CCCN2C1=O` [3BP-3409, Hex-[Cys(3MeBn)-Pro-Pro-Thr-Gln-Otf-Cys]-NH2] (Hexanoyl-CPPTQ[Phe(2-CF3)]CD-NH2; linker 1-7 via mXylylene), the pIC50 is greater than 8.00 in experiment [1] and 7.10 to 8.00 in experiment [2].

As to `CCCCCCCC(=O)N[C@H]1CSCc2cccc(c2)CSC[C@@H](C(=O)N[C@@H](CC(=O)O)C(N)=O)NC(=O)[C@H](Cc2ccccc2)NC(=O)[C@H](CCC(N)=O)NC(=O)[C@H]([C@@H](C)O)NC(=O)[C@@H]2CCCN2C(=O)[C@@H]2CCCN2C1=O` [3BP-3417, Oct-[Cys(3MeBn)-Pro-Pro-Thr-Gln-Phe-Cys]-Asp-NH2] (Octanoyl-CPPTQFCD-NH2; linker 1-7 via mXylylene), the pIC50 in experiment [1] and in experiment [2] was 7.10 to 8.00 each time.

`CCCCCNC(=O)N[C@H]1CSCc2cccc(c2)CSC[C@@H](C(=O)N[C@@H](CC(=O)O)C(N)=O)NC(=O)[C@H](Cc2ccccc2)NC(=O)[C@H](CCC(N)=O)NC(=O)[C@H]([C@@H](C)O)NC(=O)[C@@H]2CCCN2C(=O)[C@@H]2CCCN2C1=O` [3BP-3425, PentylNH-urea-[Cys(3MeBn)-Pro-Pro-Thr-Gln-Phe-Cys]-Asp-NH2] ({NHPentyl-CO}-CPPTQFCD-NH2; linker 1-7 via mXylylene): the figures for the pIC50 in experiment [1] and in experiment [2] were greater than 8.00 and 7.10 to 8.00, respectively.

Turning to `CCCCCC(=O)N[C@H]1CSCc2cccc(c2)CSC[C@@H](C(=O)N[C@@H](CC(=O)O)C(N)=O)NC(=O)[C@H](Cc2ccccc2)NC(=O)[C@H](CCC(=O)NCCCNC(=O)CN2CCN(CC(=O)O)CCN(CC(=O)O)CCN(CC(=O)O)CC2)NC(=O)[C@H]([C@@H](C)O)NC(=O)[C@@H]2CCCN2C(=O)[C@@H]2CCCN2C1=O` [3BP-3472, Hex-[Cys(3MeBn)-Pro-Pro-Thr-Glu(NH-Apr-DOTA')-Phe-Cys]-Asp-NH2] (Hexanoyl-CPPTE(NH(CH2)3NHDOTA)FCD-NH2; linker 1-7 via mXylylene), the pIC50 in experiment [1] and in experiment [2] was less than 6.00 each time.

Take `CCCCCC(=O)N[C@H]1CSCc2cccc(c2)CSC[C@@H](C(=O)N[C@@H](CC(=O)O)C(N)=O)NC(=O)[C@H](Cc2ccccc2)NC(=O)[C@H](CCC(=O)NCCCNC(=O)COCCOCCNC(=O)CN2CCN(CC(=O)O)CCN(CC(=O)O)CCN(CC(=O)O)CC2)NC(=O)[C@H]([C@@H](C)O)NC(=O)[C@@H]2CCCN2C(=O)[C@@H]2CCCN2C1=O` [3BP-3473, Hex-[Cys(3MeBn)-Pro-Pro-Thr-Glu(NH-Apr-O2O-DOTA')-Phe-Cys]-Asp-NH2] (Hexanoyl-CPPTE(NH(CH2)3NH(O2Oc(DOTA)))FCD-NH2; linker 1-7 via mXylylene): the pIC50 in experiment [1] and in experiment [2] was 6.10 to 7.00 in each case.

Turning to `CCCCCC(=O)N[C@H]1CSCc2cccc(n2)CSC[C@@H](C(=O)N[C@@H](CC(=O)O)C(N)=O)NC(=O)[C@H](Cc2ccccc2)NC(=O)[C@H](CCC(N)=O)NC(=O)[C@H]([C@@H](C)O)NC(=O)[C@@H]2CCCN2C(=O)[C@@H]2CCCN2C1=O` [3BP-3518, Hex-[Cys(2Lut)-Pro-Pro-Thr-Gln-Phe-Cys]-Asp-NH2] (Hexanoyl-CPPTQFCD-NH2; linker 1-7 via Pyridine(2,6-diCH2)), the pIC50 in experiment [1] and in experiment [2] was greater than 8.00 throughout.
